A short description of the data set: Pharmacokinetics in Sprague Dawley rats, single subcutaneous or intravenous dose (incl. 10, 30, 100 nmol/kg dose response). The data set is classed as in vivo.
Setting [1] is: male, Sprague Dawley, rat, plasma, iv, 196 nmol/kg, single intravenous dose 196 nmol/kg, individual animal.
Where [2] appears, read: male, Sprague Dawley, rat, plasma, iv, 196 nmol/kg, single intravenous dose 196 nmol/kg, mean.
Where [3] appears, read: male, Sprague Dawley, rat, plasma, sc, 196 nmol/kg, single subcutaneous dose 196 nmol/kg, individual animal.
Where [4] appears, read: male, Sprague Dawley, rat, plasma, sc, 196 nmol/kg, single subcutaneous dose 196 nmol/kg, individual animal, read-out: CL/F (converted).
Setting [5] is: male, Sprague Dawley, rat, plasma, sc, 196 nmol/kg, single subcutaneous dose 196 nmol/kg, mean.
The mark [6] stands for this setting: male, Sprague Dawley, rat, plasma, sc, 196 nmol/kg, single subcutaneous dose 196 nmol/kg, mean, read-out: CL/F (converted).
[7] abbreviates: male, Sprague Dawley, rat, plasma, sc, 196 nmol/kg, single subcutaneous dose 196 nmol/kg, mean, read-out: Tmax.
The mark [8] stands for this setting: rat, plasma, sc, single subcutaneous dose 196 nmol/kg, male Sprague Dawley rats, mean, read-out: AUC0-inf.
Where [9] appears, read: rat, plasma, sc, single subcutaneous dose 196 nmol/kg, male Sprague Dawley rats, mean, read-out: Cmax.
[10] abbreviates: rat, plasma, single intravenous dose 196 nmol/kg, male Sprague Dawley rats, mean, read-out: AUC0-inf.
The mark [11] stands for this setting: rat, plasma, single intravenous dose 196 nmol/kg, male Sprague Dawley rats, mean, read-out: C0.
Setting [12] is: single intravenous dose 196 nmol/kg, male Sprague Dawley rats, individual animal.
Setting [13] is: single subcutaneous dose 196 nmol/kg, male Sprague Dawley rats, individual animal.
The mark [14] stands for this setting: male, Sprague Dawley, rat, plasma, iv, 201 nmol/kg, single intravenous dose 201 nmol/kg, individual animal.
Setting [15] is: male, Sprague Dawley, rat, plasma, iv, 201 nmol/kg, single intravenous dose 201 nmol/kg, mean.
[16] abbreviates: single intravenous dose 201 nmol/kg, male Sprague Dawley rats, individual animal.
Where [17] appears, read: single subcutaneous dose 201 nmol/kg, male Sprague Dawley rats, individual animal.

Several values for one entry are separate records, joined by “and”; a condition that tells them apart may be missing. Equal values may be shown once. Read-outs that look alike come from different tables or passages of the source. *1 amine or outer side, *2 acyl side, *3 side chain or, on linkers, in order; H or OH if unused. Where a SMILES comes first, the peptide text is derived from it. Side-chain parts run from the residue outwards. [ ]: non-standard residue; d: D form. The star is where a group is joined. C20 diacid = O=C(O)CCCCCCCCCCCCCCCCCCC(=O)*; γGlu = O=C(O)[C@H](CCC(=O)[*:2])N[*:1]; NMeI = CC[C@H](C)[C@H](NC)C(=O)O; αMeL = CC(C)C[C@](C)(N)C(=O)O; AEEA = NCCOCCOCC(=O)O; Aib = CC(C)(N)C(=O)O

The term half-life denotes how long it takes for the measured level to halve. A high value points to slow loss. Broadly, the Tmax is the time at which the peak concentration occurs. By Cmax is commonly meant the highest concentration seen after dosing.

With `CC[C@H](C)[C@H](NC(C)=O)C(=O)N[C@H](C(=O)N[C@H](C(=O)N[C@@H](CO)C(=O)N[C@@](C)(CC(C)C)C(=O)N[C@@H](CC(=O)O)C(=O)N[C@@H](C(=O)N1CCC[C@H]1C(=O)N[C@H](C(=O)NC(C)(C)C(=O)N[C@@](C)(CC(C)C)C(=O)N[C@@H](CC(C)C)C(=O)N[C@@H](CCC(N)=O)C(=O)N[C@H](C(=O)N[C@@H](CCCCN)C(=O)N[C@@H](CC(C)C)C(=O)N[C@@H](CCC(=O)O)C(=O)N[C@@H](CCC(N)=O)C(=O)N[C@@H](CCC(=O)O)C(=O)N[C@@H](CCCNC(=N)N)C(=O)N[C@@H](C)C(=O)N[C@@H](CCC(=O)O)C(=O)N[C@@H](CCCCN)C(=O)N[C@@H](C)C(=O)N[C@@H](CCCNC(=N)N)C(=O)N[C@@H](CCC(N)=O)C(=O)N[C@@H](CCC(N)=O)C(=O)N[C@@H](C)C(=O)N[C@@H](CCCCNC(=O)COCCOCCNC(=O)COCCOCCNC(=O)CC[C@H](NC(=O)CCCCCCCCCCCCCCCCCCC(=O)O)C(=O)O)C(=O)N[C@@H](CCC(=O)O)C(=O)N[C@@H](CC(N)=O)C(=O)N[C@H](C(=O)N[C@@H](CCC(=O)O)C(=O)N[C@H](C(=O)N[C@@H](CC(C)C)C(=O)N[C@@H](C)C(=O)N[C@@H](CCC(N)=O)C(=O)N[C@H](C(N)=O)C(C)C)[C@@H](C)CC)[C@@H](C)O)[C@@H](C)CC)[C@@H](C)O)C(C)C)[C@@H](C)O)C(C)C` [SEQ ID NO: 41, Ac-IVTS αMeL D (D-Val) PT Aib αMeL LQIKLEQERAEKARQQAK((2-[2-(2-Amino-ethoxy)-ethoxy]-acetyl)2-γE-CO-(CH2)18-CO2H)ENTEILAQV-NH2] (Ac-IVTS[αMeL]D[dV]PT[Aib][αMeL]LQIKLEQERAEKARQQAK([AEEA-AEEA-γGlu-C20 diacid])ENTEILAQV-NH2), the clearance by setting is: under setting [1], 3.91 mL/h/kg; under setting [2], 3.82 mL/h/kg. For the same molecule, the half-life by setting is: under setting [1], 48.4 h; under setting [2], 45.7 h; under setting [3], 43.8 h; under setting [5], 39.3 h. Further, the CL/F runs as follows: under setting [4], 5.04 mL/h/kg; under setting [6], 4.47 mL/h/kg; under setting [13], 3.73 mL/h/kg and 4.63 mL/h/kg. In addition, the Tmax was 24 h (male, Sprague Dawley, rat, plasma, sc, 196 nmol/kg, single subcutaneous dose 196 nmol/kg, individual animal, read-out: Tmax) and 24 h under setting [7]. Besides, the AUC0-inf was 48.1 µM·h under setting [8]; 52.1 µM·h under setting [10]; 50.1 µM·h and 60.6 µM·h and 45.5 µM·h under setting [12]; 43.1 µM·h and 56.2 µM·h and 45 µM·h under setting [13]. For the same molecule, the Cmax was 550 nM under setting [9]; 467 nM and 645 nM and 539 nM under setting [13]. The C0 is 1190 nM under setting [11]; 1350 nM and 1620 nM and 586 nM under setting [12]. In addition, under setting [12], the CL was 3.23 mL/h/kg and 4.31 mL/h/kg. In addition, the T1/2 reads like this: under setting [12], 49.8 h and 39.0 h; under setting [13], 36.5 h and 37.7 h.

Regarding `CC[C@H](C)[C@H](NC)C(=O)N[C@H](C(=O)N[C@H](C(=O)N[C@@H](CO)C(=O)N[C@@H](CC(C)C)C(=O)N[C@@H](CC(=O)O)C(=O)N[C@H](C(=O)N1CCC[C@H]1C(=O)N[C@H](C(=O)NCC(=O)N[C@@](C)(CC(C)C)C(=O)N[C@@H](CC(C)C)C(=O)N[C@@H](CCC(N)=O)C(=O)N[C@@H](CCCCN)C(=O)N[C@@H](CC(C)C)C(=O)N[C@H](C(=O)N[C@@H](CCC(=O)O)C(=O)N[C@@H](CCC(N)=O)C(=O)N[C@@H](CCC(=O)O)C(=O)N[C@@H](CCCCN)C(=O)N[C@@H](CCC(N)=O)C(=O)N[C@@H](CCC(=O)O)C(=O)N[C@@H](CCCCN)C(=O)N[C@@H](CCC(=O)O)C(=O)N[C@@H](CCCCN)C(=O)N[C@@H](CCC(N)=O)C(=O)N[C@@H](CCC(N)=O)C(=O)N[C@@H](C)C(=O)N[C@@H](CCCCNC(=O)COCCOCCNC(=O)COCCOCCNC(=O)CC[C@H](NC(=O)CCCCCCCCCCCCCCCCCCC(=O)O)C(=O)O)C(=O)N[C@@H](CCC(=O)O)C(=O)N[C@@H](CC(N)=O)C(=O)N[C@H](C(=O)N[C@@H](CCC(=O)O)C(=O)N[C@H](C(=O)N[C@@H](CC(C)C)C(=O)N[C@@H](C)C(=O)N[C@@H](CCC(N)=O)C(=O)N[C@H](C(N)=O)C(C)C)[C@@H](C)CC)[C@@H](C)O)[C@@H](C)CC)[C@@H](C)CC)C(C)C)[C@@H](C)O)C(C)C` [SEQ ID NO: 49, (NMeI) VTSLDVPIG αMeL LQKLIEQEKQEKEKQQAK((2-[2-(2-Amino-ethoxy)-ethoxy]-acetyl)2-γE-CO-(CH2)18-CO2H)ENTEILAQV-NH2] (H-[NMeI]VTSLDVPIG[αMeL]LQKLIEQEKQEKEKQQAK([AEEA-AEEA-γGlu-C20 diacid])ENTEILAQV-NH2), the clearance is 4.72 mL/h/kg under setting [1] and 4.15 mL/h/kg under setting [2]. Besides, the half-life is, setting by setting: under setting [1], 17.8 h; under setting [2], 20.4 h; under setting [3], 19.1 h; under setting [5], 18.4 h. Also, the CL/F is 11.5 mL/h/kg under setting [4]; 10.6 mL/h/kg under setting [6]; 8.76 mL/h/kg and 11.4 mL/h/kg under setting [13]. Moreover, the Tmax reads like this: under setting [7], 18 h; under setting [13], 24 h and 6 h. Further, the AUC0-inf is 18.9 µM·h under setting [8]; 47.7 µM·h under setting [10]; 41.5 µM·h and 53.1 µM·h and 48.4 µM·h under setting [12]; 17.1 µM·h and 22.4 µM·h and 17.3 µM·h under setting [13]. In addition, the Cmax was 394 nM under setting [9]; 340 nM and 474 nM and 367 nM under setting [13]. For the same molecule, the C0 by setting is: under setting [11], 2840 nM; under setting [12], 2790 nM and 2610 nM and 3110 nM. For the same molecule, the CL under setting [12] was 3.69 mL/h/kg and 4.05 mL/h/kg. Besides, the T1/2 is 21.7 h and 21.6 h under setting [12]; 16.0 h and 20.2 h under setting [13].

As for `CC[C@H](C)[C@H](NC)C(=O)N[C@H](C(=O)N[C@H](C(=O)N[C@@H](CO)C(=O)N[C@@H](CC(C)C)C(=O)N[C@@H](CC(=O)O)C(=O)N[C@H](C(=O)N1CCC[C@H]1C(=O)N[C@H](C(=O)NCC(=O)N[C@@](C)(CC(C)C)C(=O)N[C@@H](CC(C)C)C(=O)N[C@@H](CCC(N)=O)C(=O)N[C@@H](CCCCN)C(=O)N[C@@H](CC(C)C)C(=O)N[C@@H](CC(C)C)C(=O)N[C@@H](CCC(=O)O)C(=O)N[C@@H](CCC(N)=O)C(=O)N[C@@H](CCC(=O)O)C(=O)N[C@@H](CCCNC(=N)N)C(=O)N[C@@H](C)C(=O)N[C@@H](CCC(=O)O)C(=O)N[C@@H](CCCCN)C(=O)N[C@@H](C)C(=O)N[C@@H](CCCNC(=N)N)C(=O)N[C@@H](CCC(N)=O)C(=O)N[C@@H](CCC(N)=O)C(=O)N[C@@H](C)C(=O)N[C@@H](CCCCNC(=O)COCCOCCNC(=O)COCCOCCNC(=O)CC[C@H](NC(=O)CCCCCCCCCCCCCCCCCCC(=O)O)C(=O)O)C(=O)N[C@@H](CCC(=O)O)C(=O)N[C@@H](C)C(=O)N[C@@H](C)C(=O)N[C@@H](CCC(=O)O)C(=O)N[C@H](C(=O)N[C@@H](CC(C)C)C(=O)N[C@@H](C)C(=O)N[C@@H](CCC(N)=O)C(=O)N[C@H](C(N)=O)C(C)C)[C@@H](C)CC)[C@@H](C)CC)C(C)C)[C@@H](C)O)C(C)C` [SEQ ID NO: 50, (NMeI) VTSLDVPIG αMeL LQKLLEQERAEKARQQAK((2-[2-(2-Amino-ethoxy)-ethoxy]-acetyl)2-γE-CO-(CH2)18-CO2H)EAAEILAQV-NH2] (H-[NMeI]VTSLDVPIG[αMeL]LQKLLEQERAEKARQQAK([AEEA-AEEA-γGlu-C20 diacid])EAAEILAQV-NH2), the clearance is, setting by setting: under setting [14], 3.37 mL/h/kg; under setting [15], 2.93 mL/h/kg. Besides, the half-life was 20.3 h under setting [14]; 19.2 h under setting [15]; 19.7 h (male, Sprague Dawley, rat, plasma, sc, 201 nmol/kg, single subcutaneous dose 201 nmol/kg, individual animal); 17.1 h (male, Sprague Dawley, rat, plasma, sc, 201 nmol/kg, single subcutaneous dose 201 nmol/kg, mean). The CL/F is 7.55 mL/h/kg (male, Sprague Dawley, rat, plasma, sc, 201 nmol/kg, single subcutaneous dose 201 nmol/kg, individual animal, read-out: CL/F (converted)); 7.53 mL/h/kg (male, Sprague Dawley, rat, plasma, sc, 201 nmol/kg, single subcutaneous dose 201 nmol/kg, mean, read-out: CL/F (converted)); 8.03 mL/h/kg and 7.01 mL/h/kg under setting [17]. In addition, the time of peak concentration (Tmax) (male, Sprague Dawley, rat, plasma, sc, 201 nmol/kg, single subcutaneous dose 201 nmol/kg, individual animal, read-out: Tmax) was found to be 24 h and the Tmax (male, Sprague Dawley, rat, plasma, sc, 201 nmol/kg, single subcutaneous dose 201 nmol/kg, mean, read-out: Tmax) worked out at 24 h. Besides, the AUC0-inf was 26.8 µM·h (rat, plasma, sc, single subcutaneous dose 201 nmol/kg, male Sprague Dawley rats, mean, read-out: AUC0-inf); 69.2 µM·h (rat, plasma, single intravenous dose 201 nmol/kg, male Sprague Dawley rats, mean, read-out: AUC0-inf); 59.6 µM·h and 74.2 µM·h and 73.9 µM·h under setting [16]; 26.7 µM·h and 25.1 µM·h and 28.7 µM·h under setting [17]. In addition, the highest concentration (Cmax) (rat, plasma, sc, single subcutaneous dose 201 nmol/kg, male Sprague Dawley rats, mean, read-out: Cmax) amounted to 552 nM; the peak concentration (Cmax) under setting [17] is 577 nM and 460 nM and 618 nM. Further, the C0 was 5290 nM (rat, plasma, single intravenous dose 201 nmol/kg, male Sprague Dawley rats, mean, read-out: C0); 5560 nM and 4360 nM and 5960 nM under setting [16]. Further, the CL under setting [16] was 2.71 mL/h/kg and 2.72 mL/h/kg. Besides, the T1/2 by setting is: under setting [16], 18.3 h and 19.0 h; under setting [17], 14.9 h and 16.7 h.

Source of the values: patent US20250163119A1, “COMPOUNDS FOR THE TREATMENT OF DIABETES OR OBESITY” (Eli Lilly and Company, priority 2023, published 2025).
